From patent US5334587A, “Compounds, named the "Leustroducsins", their preparation and their therapeutic uses” (Sankyo Company, Limited, priority 1991, dated 1994) come the findings set out here.

Converted amounts (≈) assume the structure as drawn.

Data set [1] has as its system GM-CSF production by KM-102 cells. The data set is described as follows: Stimulation of GM-CSF production (KM-102 cells; GM-CSF assayed by growth of TF-1 cells). It counts as cell-based, human. As to conditions: for EC50: Homo sapiens, 24 hours, TF-1 cell growth, read-out: ED50 for stimulation of GM-CSF production; for EC50 / induction of GM-CSF production (in words): KM-102 cells. The text has this:
(§1) The ability of the leustroducsins to stimulate the production of hematopoietic factors in accordance with the present invention can, in principle, be assayed by the method by Kohama et al. [Experimental Hematology 16, 603-608 (1988)]. In this method, a production system for various hematopoietic factors and an assay system for various hematopoietic factors are combined. KM-102 cells, for example, which originated from human bone marrow stromal cells, my be employed to produce various hematopoietic factors. However, any cells capable of the production of various hematopoietic factors may be used instead, for example primary cultured bone marrow stromal cells, vascular endothelial cells, lymphocytes, or macrophages which exist in the bone marrow. A test sample of the compound whose activity is to be assessed is diluted to a suitable concentration and added the culture system containing the cells which produce various hematopoietic factors ("HF-producing cells"). After a suitable period, usually 24 hours, a part of the supernatant of the culture medium is taken, and added to a culture system of cells which are dependent on various hematopoietic factors, for example, TF-1 cells and NFS-60 cells, ("HF-dependent cells") at a suitable concentration. After a certain time, the amount of hematopoietic factors can be measured by measuring the growth of the HF-dependent cells, and thus the ability of the compound to stimulate the production of various hematopoietic factors can be assayed. The growth of the HF-dependent cells may be determined by any conventional method, such as the incorporation of tritium-thymidine by the cells or using an MTT [3-(4,5-dimethylthiazol-2-yl)-2,5-diphenyltetrazolium bromide] assay method (Chemicon International Inc., USA). The assay of various hematopoietic factors may be carried out by any conventional method, such as the colony-forming method or the ELISA method.
Determination of the stimulation of GM-CSF production by the compounds of the present invention was carried out, in principle, using a combination of the method of Kohama et al. [Experimental Hematology 16, 603-608 (1988)] and that of Kitamura et al. [Journal of Cellular Physiology 140, 323-334 (1989)]. In more detail, KM-102 cells originating from human bone marrow stromal cells, which served as to produce GM-CSF, were mixed with a test sample solution diluted to a suitable concentration (the "GM-CSF producing system"). After incubation for 24 hours, a part of the culture supernatant was taken and was added to a culture system of GM-CSF-dependent human TF-1 cells. After between 48 and 72 hours, the amount of GM-CSF was measured by the growth of TF-1 cells (the "GM-CSF assay system") to obtain a measure of the stimulation of GM-CSF production. The growth of TF-1 cells was determined by tritium thymidine pulse-labelling for 4 hours. Similar results were obtained also by means of an MTT kit (Chemicon International Inc. USA) to assay the growth of TF-1 cells and by means of an ELISA kit (Genzyme Inc. USA) to assay the GM-CSF. Whether the GM-CSF production inducing system functioned normally or not was assayed by means of recombinant interleukin 1β (IL-1β: Genzyme Inc. USA).

Data set [2] deals with G-CSF production by KM-102 cells. The data set is described as follows: Stimulation of G-CSF production (KM-102 cells; G-CSF assayed by growth of NFS-60 cells). It counts as cell-based, human. As to conditions: for EC50: Homo sapiens, 24 hours, NFS-60 cell growth, read-out: ED50 for stimulation of G-CSF production; for EC50 / induction of G-CSF production (in words): KM-102 cells.
Excerpt: as §1
Stimulation of G-CSF production was assayed by a system in which the GM-CSF assay system employed inTest Example 1 was replaced by a G-CSF assay system [as described by Shirafuji et al.: Experimental Hematology 17, 116-119 (1989)]. In more detail, KM-102 cells originating from human bone marrow stromal cells, which served to produce G-CSF, were added to a leustroducsin solution diluted to a suitable concentration (the "G-CSF producing system"). After incubation for 24 hours, a part of the culture supernatant was taken, and added to a culture system of G-CSF-dependent NFS-60 cells. After between 24 and 48 hours, the amount of G-CSF was assayed from the growth of NFS-60 cells (the "G-CSF assay system") to obtain a measure of the stimulation of G-CSF production. The growth of NFS-60 cells was determined by tritium-thymidine pulse-labelling for 4 hours. Similar results were also obtained by means of an MTT kit to assay the growth of NFS-60 cells and by means of an ELISA kit to assay the G-CSF [Motojima et al.: Journal of Immunological Methods 118, 187-192 (1989)]. Whether the G-CSF production inducing system functioned normally or not was assayed by means of recombinant interleukin 1 β (IL-1β: Genzyme Inc. USA).

A further data set in a line: Solubility / nature. It counts as physicochemical.
The nature of a further data set: Acute toxicity. It counts as in vivo, ddY mice (male). The procedure: According to the conventional procedure, the acute toxicity was tested in five ddY mice (male).
[3] abbreviates: similarly tested, dose not separately printed.

As to “IL-1β: recombinant interleukin 1β (IL-1β: Genzyme Inc. USA)”, in data set [1] (1 to 100 units/ml), the “induction of GM-CSF production by IL-1β (in words)” value is recorded as “induced GM-CSF production in a dose-dependent manner”. Further, the “induction by IL-1β, printed as GM-CSF production in the G-CSF test (in words)” value in data set [2] (1 to 100 units/ml) is on record as “induced GM-CSF production in a dose-dependent fashion”.
In the case of `CCC1C=CC(=O)OC1/C=C/C(O)(CCN)C(CC(O)/C=C\C=C/C1CCCC(OC(=O)CCCC(C)C)C1)OP(=O)(O)O` (centres unmarked) [Leustroducsin A], in data set [1], the EC50 worked out at 0.18 µg/mL and the “induction of GM-CSF production (in words)” value is given as “induced in a dose-dependent manner”. Also, in “Solubility / nature”, the Nature entry was “Acidic and fat soluble”; the Solubility in hexane entry was “insoluble in hexane”; the “Solubility in organic solvents” value was “Soluble in alcohols, such as methanol, ethanol or butanol; and soluble in acetone, chloroform, ethyl acetate and dimethyl sulfoxide”; the Solubility in water result was “limited solubility in water”. Besides, in data set [2], the EC50 stood at 0.2 µg/mL (≈ 0.312 µM) and the “induction of G-CSF production (in words)” value is “induced in a dose-dependent fashion”. Also, the acute toxicity result in the data set “Acute toxicity” (intraperitoneal, 0.2 mg/kg, 5 days, five mice) is “no toxicity was observed”.
As for `CCC(C)CCCCC(=O)OC1CCCC(/C=C\C=C/C(O)CC(OP(=O)(O)O)C(O)(/C=C/C2OC(=O)C=CC2CC)CCN)C1` (centres unmarked) [Leustroducsin B], in data set [1], the EC50 turned out to be 0.05 µg/mL and the “induction of GM-CSF production (in words)” value was “induced in a dose-dependent manner”. Also, in the data set “Solubility / nature”, the Nature entry is “Acidic and fat soluble”; the Solubility in hexane entry is on record as “insoluble in hexane”; the “Solubility in organic solvents” value was “Soluble in alcohols, such as methanol, ethanol or butanol; and soluble in acetone, chloroform, ethyl acetate and dimethyl sulfoxide”; the Solubility in water entry is “limited solubility in water”. In data set [2], the EC50 worked out at 0.05 µg/mL (≈ 0.0746 µM) and the “induction of G-CSF production (in words)” value is given as “induced in a dose-dependent fashion”. Besides, in “Acute toxicity” (setting [3]), the acute toxicity result is “no toxicity was observed”.
On to `CCC1C=CC(=O)OC1/C=C/C(O)(CCN)C(CC(O)/C=C\C=C/C1CCCC(OC(=O)CCCCCC(C)C)C1)OP(=O)(O)O` (centres unmarked) [Leustroducsin C], for which, in data set [1], the EC50 worked out at 0.05 µg/mL and the “induction of GM-CSF production (in words)” value is “induced in a dose-dependent manner”. In addition, in “Solubility / nature”, the Nature entry was “Acidic and fat soluble”; the Solubility in hexane entry is listed as “insoluble in hexane”; the “Solubility in organic solvents” value was “Soluble in alcohols, such as methanol, ethanol or butanol; and soluble in acetone, chloroform, ethyl acetate and dimethyl sulfoxide”; the Solubility in water entry is listed as “limited solubility in water”. In data set [2], the EC50 amounted to 0.05 µg/mL (≈ 0.0746 µM) and the “induction of G-CSF production (in words)” value is “induced in a dose-dependent fashion”. In addition, the acute toxicity entry in the data set “Acute toxicity” (setting [3]) is “no toxicity was observed”.
